Data: patent US20250154144A1 (CHILDREN'S HOSPITAL MEDICAL CENTER, priority 2021, published 2025)
Residue numbers refer to the chain shown, from its start.

Tests used:
FLT3 ITD = target: T1, FLT3 ITD (Homo sapiens, UniProt P36888); assay: DiscoverX KINOMEscan competition binding, FLT3 ITD; details: read-out: FLT3 ITD Kd
T1 sequence (P36888 1-993): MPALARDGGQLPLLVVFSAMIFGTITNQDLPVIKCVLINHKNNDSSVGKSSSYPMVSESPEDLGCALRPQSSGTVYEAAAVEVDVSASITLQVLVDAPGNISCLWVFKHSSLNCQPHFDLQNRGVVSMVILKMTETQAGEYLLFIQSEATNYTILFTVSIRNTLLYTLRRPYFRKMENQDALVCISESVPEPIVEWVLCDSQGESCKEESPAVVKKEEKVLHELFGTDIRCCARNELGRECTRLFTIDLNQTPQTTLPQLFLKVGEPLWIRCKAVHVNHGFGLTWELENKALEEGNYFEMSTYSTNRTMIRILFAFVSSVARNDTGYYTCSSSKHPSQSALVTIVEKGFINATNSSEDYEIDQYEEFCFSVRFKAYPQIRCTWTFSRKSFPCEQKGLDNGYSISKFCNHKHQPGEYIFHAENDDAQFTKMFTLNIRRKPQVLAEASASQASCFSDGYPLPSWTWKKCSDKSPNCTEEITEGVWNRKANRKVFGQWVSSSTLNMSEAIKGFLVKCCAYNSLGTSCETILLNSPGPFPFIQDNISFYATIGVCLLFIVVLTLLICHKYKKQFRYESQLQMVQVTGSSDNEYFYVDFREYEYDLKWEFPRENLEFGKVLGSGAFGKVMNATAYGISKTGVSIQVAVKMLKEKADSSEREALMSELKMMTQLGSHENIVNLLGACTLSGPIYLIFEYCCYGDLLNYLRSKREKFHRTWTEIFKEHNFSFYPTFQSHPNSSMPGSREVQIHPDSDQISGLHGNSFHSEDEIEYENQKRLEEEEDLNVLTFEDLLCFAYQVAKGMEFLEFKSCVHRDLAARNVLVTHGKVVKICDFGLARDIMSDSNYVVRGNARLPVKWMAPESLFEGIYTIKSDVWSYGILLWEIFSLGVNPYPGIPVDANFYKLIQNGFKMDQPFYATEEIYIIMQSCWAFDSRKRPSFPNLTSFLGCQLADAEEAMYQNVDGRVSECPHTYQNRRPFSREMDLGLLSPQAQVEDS

FLT3 D835Y = target: T2, FLT3 D835Y (Homo sapiens, UniProt P36888, D835Y); assay: DiscoverX KINOMEscan competition binding, FLT3 D835Y
T2 construct: purchased DiscoverX (KINOMEscan)
T2 sequence (P36888 27-993 D835Y): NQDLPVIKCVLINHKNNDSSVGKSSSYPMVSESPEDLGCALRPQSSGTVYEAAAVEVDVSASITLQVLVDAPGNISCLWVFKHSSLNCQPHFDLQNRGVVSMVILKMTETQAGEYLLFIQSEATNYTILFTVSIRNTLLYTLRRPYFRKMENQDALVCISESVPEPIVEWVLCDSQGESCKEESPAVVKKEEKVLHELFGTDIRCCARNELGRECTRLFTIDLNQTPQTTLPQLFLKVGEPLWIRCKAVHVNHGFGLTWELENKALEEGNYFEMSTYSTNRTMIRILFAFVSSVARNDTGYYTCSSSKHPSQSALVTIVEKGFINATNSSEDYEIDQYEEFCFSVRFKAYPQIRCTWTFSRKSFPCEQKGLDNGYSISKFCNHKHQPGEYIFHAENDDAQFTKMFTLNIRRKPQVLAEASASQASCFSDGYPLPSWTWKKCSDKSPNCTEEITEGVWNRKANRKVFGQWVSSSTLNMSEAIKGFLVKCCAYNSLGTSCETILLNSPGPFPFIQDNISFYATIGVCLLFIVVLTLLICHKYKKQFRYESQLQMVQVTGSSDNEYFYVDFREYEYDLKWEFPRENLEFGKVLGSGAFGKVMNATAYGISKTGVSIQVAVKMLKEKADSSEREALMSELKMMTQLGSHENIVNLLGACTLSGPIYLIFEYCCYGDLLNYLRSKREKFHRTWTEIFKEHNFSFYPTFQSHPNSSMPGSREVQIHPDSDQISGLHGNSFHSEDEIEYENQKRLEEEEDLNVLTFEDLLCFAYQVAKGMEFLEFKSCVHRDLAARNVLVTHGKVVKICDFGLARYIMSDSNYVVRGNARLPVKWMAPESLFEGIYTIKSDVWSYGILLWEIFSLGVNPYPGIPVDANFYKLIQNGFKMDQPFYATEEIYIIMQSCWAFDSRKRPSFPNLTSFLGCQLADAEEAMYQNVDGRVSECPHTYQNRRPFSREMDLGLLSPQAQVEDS

FLT3 R834Q = target: T3, FLT3 R834Q (Homo sapiens, UniProt P36888, R834Q); assay: DiscoverX KINOMEscan competition binding, FLT3 R834Q
T3 construct: purchased DiscoverX (KINOMEscan)
T3 sequence (P36888 27-993 R834Q): T2 sequence (P36888 27-993 D835Y) with R808Q, Y809D

## CC(O)(c1cn2c(-c3ccnc(N[C@H]4CNCC[C@@H]4F)n3)cnc2cn1)C(F)(F)F (single isomer, unassigned) [Compound 72]
FLT3 ITD
  Kd: 0.62 nM
FLT3 D835Y
  Kd: 0.69 nM
FLT3 R834Q
  Kd: 14 nM

## F[C@H]1CCNC[C@@H]1Nc1cncc(-c2cnc3cc(OC4CC4)ccn23)n1 [Compound 12, 6-(7-cyclopropoxyimidazo[1,2-a]pyridin-3-yl)-N-((3S,4S)-4-fluoropiperidin-3-yl)pyrazin-2-amine]
FLT3 ITD
  Kd: 0.87 nM
FLT3 D835Y
  Kd: 1.1 nM
FLT3 R834Q
  Kd: 18 nM

## COc1cc2ncc(-c3cncc(N[C@H]4CNC[C@@H]4F)n3)n2nc1C1CC1 [Compound 22, 6-(6-cyclopropyl-7-methoxyimidazo[1,2-b]pyridazin-3-yl)-N-((3S,4S)-4-fluoropyrrolidin-3-yl)pyrazin-2-amine]
FLT3 ITD
  Kd: 0.67 nM
FLT3 D835Y
  Kd: 0.6 nM
FLT3 R834Q
  Kd: 9.3 nM

## COc1cc2ncc(-c3cncc(N[C@H]4CNCC[C@@H]4F)n3)n2nc1C1CC1 [Compound 24, 6-(6-cyclopropyl-7-methoxyimidazo[1,2-b]pyridazin-3-yl)-N-((3S,4S)-4-fluoropiperidin-3-yl)pyrazin-2-amine]
FLT3 ITD
  Kd: 0.97 nM
FLT3 D835Y
  Kd: 0.74 nM
FLT3 R834Q
  Kd: 1.8 nM

## COc1cc2ncc(-c3ccnc(N[C@@H]4CCCNC4)n3)n2cc1C(C)(C)O [Compound 44, (R)-2-(7-methoxy-3-(2-(piperidin-3-ylamino)pyrimidin-4-yl)imidazo[1,2-a]pyridin-6-yl)propan-2-ol]
FLT3 ITD
  Kd: 0.42 nM
FLT3 D835Y
  Kd: 0.15 nM
FLT3 R834Q
  Kd: 1.4 nM

## COc1cc2ncc(-c3ccnc(N[C@H]4CNC[C@@H]4F)n3)n2nc1C1CC1 [Compound 49, 4-(6-cyclopropyl-7-methoxyimidazo[1,2-b]pyridazin-3-yl)-N-((3S,4S)-4-fluoropyrrolidin-3-yl)pyrimidin-2-amine]
FLT3 ITD
  Kd: 0.59 nM
FLT3 D835Y
  Kd: 0.41 nM
FLT3 R834Q
  Kd: 1.4 nM

## COc1cc2ncc(-c3ccnc(N[C@H]4CNCC[C@@H]4F)n3)n2nc1C1CC1 [Compound 51, 4-(6-cyclopropyl-7-methoxyimidazo[1,2-b]pyridazin-3-yl)-N-((3S,4S)-4-fluoropiperidin-3-yl)pyrimidin-2-amine]
FLT3 ITD
  Kd: 2 nM
FLT3 D835Y
  Kd: 0.35 nM
FLT3 R834Q
  Kd: 1.1 nM
